In US20240368150A1 (Hoffmann-La Roche Inc., priority 2021, published 2024):
Read-outs that look alike come from different tables or passages of the source.

What was measured:
primary human T-cells [1] = system: primary human T-cells
primary human T-cells [2] = test: Proliferation assay after 5 days (CellTiter-Glo, CD3 stimulation; PBS counter screen); assay type: cell-based; conditions: Homo sapiens, T-cell, 120 h, CD3 stimulation; for Emax: 5 days, normalized to reference compound A1 as stimulator control = 100%, DMSO neutral control, read-out: Emax proliferation (% activation); for EC50: primary human T-cells, CellTiter-Glo after 5 days, EC50 of fitted sigmoidal curve, read-out: Tcell Proliferation CD3 EC50
How it was run: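 ATP-based luminescence (CellTiter-Glo 2.0, room temperature) measured proliferation 5 days after compound addition to CD3-stimulated or unstimulated primary human T-cells. Flags marked compounds that lowered viability or activated unstimulated cells.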

| EC50 (primary human T-cells [1]) [nM] | Structure (SMILES) | Emax (primary human T-cells [2]) [%] | EC50 (primary human T-cells [2]) [nM] |
| --- | --- | --- | --- |
| > 20000 | CC(C)(C)c1nnc(-c2cc3c(cc2F)S(=O)(=O)C[C@H](N)C(=O)N3Cc2ccccn2)o1 [Example 224, (3R)-3-amino-7-(5-tert-butyl-1,3,4-oxadiazol-2-yl)-8-fluoro-1,1-dioxo-5-(2-pyridylmethyl)-2,3-dihydro-1λ^6,5-benzothiazepin-4-one] | 31 | > 20000 |
| 4370 | COc1ccc(CN2C(=O)[C@@H](N)CS(=O)(=O)c3cc(F)c(-c4nnc(C(C)(C)C)o4)cc32)cn1 [Example 225, (3R)-3-amino-7-(5-tert-butyl-1,3,4-oxadiazol-2-yl)-8-fluoro-5-[(6-methoxy-3-pyridyl)methyl]-1,1-dioxo-2,3-dihydro-1λ^6,5-benzothiazepin-4-one] | 109 | 1890 |
| > 20000 | CC(C)(C)c1nnc(-c2cc3c(cc2F)S(=O)(=O)C[C@H](N)C(=O)N3Cc2ccc(CN)cc2)o1 [Example 226, (3R)-3-amino-5-[[4-(aminomethyl)phenyl]methyl]-7-(5-tert-butyl-1,3,4-oxadiazol-2-yl)-8-fluoro-1,1-dioxo-2,3-dihydro-1λ^6,5-benzothiazepin-4-one] | 25 | > 20000 |
| > 20000 | CC(C)(C)c1nnc(-c2cc3c(cc2F)S(=O)(=O)C[C@H](N)C(=O)N3Cc2ccccc2Cl)o1 [Example 227, (3R)-3-amino-7-(5-tert-butyl-1,3,4-oxadiazol-2-yl)-5-[(2-chlorophenyl)methyl]-8-fluoro-1,1-dioxo-2,3-dihydro-1λ^6,5-benzothiazepin-4-one] | 39 | > 20000 |
| 5200 | COc1ccc(CN2C(=O)[C@@H](N)CS(=O)(=O)c3cc(F)c(-c4nnc(C(C)(C)C)o4)cc32)nc1 [Example 228, (3R)-3-amino-7-(5-tert-butyl-1,3,4-oxadiazol-2-yl)-8-fluoro-5-[(5-methoxy-2-pyridyl)methyl]-1,1-dioxo-2,3-dihydro-1λ^6,5-benzothiazepin-4-one] | 112 | 1740 |
| 2440 | CC(C)(C)c1nnc(-c2cc3c(cc2F)S(=O)(=O)C[C@H](N)C(=O)N3Cc2ccc(S(C)(=O)=O)cc2)o1 [Example 229, (3R)-3-amino-7-(5-tert-butyl-1,3,4-oxadiazol-2-yl)-8-fluoro-5-[(4-methylsulfonylphenyl)methyl]-1,1-dioxo-2,3-dihydro-1λ^6,5-benzothiazepin-4-one] | 116 | 1680 |
| 105 | COc1ccc(CN2C(=O)[C@@H](N)CS(=O)(=O)c3cc(F)c(-c4nnc(C(C)(C)C)o4)cc32)cc1 [Example 230] | 119 | 89.3 |
| 295 | CC(C)(C)c1nnc(-c2cc3c(cc2F)S(=O)(=O)C[C@H](N)C(=O)N3Cc2ccc(F)cc2)o1 [Example 231, (3R)-3-amino-7-(5-tert-butyl-1,3,4-oxadiazol-2-yl)-8-fluoro-5-[(4-fluorophenyl)methyl]-1,1-dioxo-2,3-dihydro-1\6,5-benzothiazepin-4-one] | 114 | 257 |
| 95 | CC(C)(C)c1nnc(-c2cc3c(cc2F)S(=O)(=O)C[C@H](N)C(=O)N3Cc2ccc(Oc3ccccc3)cc2)o1 [Example 233] | 127 | 86.6 |
| 5340 | CC(C)(C)c1nnc(-c2cc3c(cc2F)S(=O)(=O)C[C@H](N)C(=O)N3Cc2ccc(OCCO)cc2)o1 [Example 234, (3R)-3-amino-7-(5-tert-butyl-1,3,4-oxadiazol-2-yl)-8-fluoro-5-[[4-(2-hydroxyethoxy)phenyl]methyl]-1,1-dioxo-2,3-dihydro-1λ^6,5-benzothiazepin-4-one] | 130 | 1200 |
| 170 | CC(=O)NCCCCCCCCCCCOc1ccc(CN2C(=O)[C@@H](N)CS(=O)(=O)c3cc(F)c(-c4nnc(C(C)(C)C)o4)cc32)cc1 [Example 235, N-[11-[4-[[(3R)-3-amino-7-(5-tert-butyl-1,3,4-oxadiazol-2-yl)-8-fluoro-1,1,4-trioxo-2,3-dihydro-1λ^6,5-benzothiazepin-5-yl]methyl]phenoxy]undecyl]acetamide] | 108 | 46.6 |
| 3230 | CC(C)(C)c1nnc(-c2cc3c(cc2F)S(=O)(=O)C[C@H](N)C(=O)N3Cc2ccc(OCC(N)=O)cc2)o1 [Example 236, 2-[4-[[(3R)-3-amino-7-(5-tert-butyl-1,3,4-oxadiazol-2-yl)-8-fluoro-1,1,4-trioxo-2,3-dihydro-1λ^6,5-benzothiazepin-5-yl]methyl]phenoxy]acetamide] | 98 | 3240 |
| 769 | CC(C)(C)c1nnc(-c2cc3c(cc2F)S(=O)(=O)C[C@H](N)C(=O)N3Cc2cnc(C3CC3)nc2)o1 [Example 238, (3R)-3-amino-7-(5-tert-butyl-1,3,4-oxadiazol-2-yl)-5-[(2-cyclopropylpyrimidin-5-yl)methyl]-8-fluoro-1,1-dioxo-2,3-dihydro-1λ^6,5-benzothiazepin-4-one] | 102 | 3070 |
| 5580 | CC(C)(C)c1nnc(-c2cc3c(cc2F)S(=O)(=O)C[C@H](N)C(=O)N3Cc2ccc(C3(O)COC3)cc2)o1 [Example 239, (3R)-3-amino-7-(5-tert-butyl-1,3,4-oxadiazol-2-yl)-8-fluoro-5-[[4-(3-hydroxyoxetan-3-yl)phenyl]methyl]-1,1-dioxo-2,3-dihydro-1λ^6,5-benzothiazepin-4-one] | 69 | 5100 |
| 6390 | CC(C)(C)c1nnc(-c2cc3c(cc2F)S(=O)(=O)C[C@H](N)C(=O)N3Cc2ccc(S(C)(=O)=O)cc2F)o1 [Example 240, (3R)-3-amino-7-(5-tert-butyl-1,3,4-oxadiazol-2-yl)-8-fluoro-5-[(2-fluoro-4-methylsulfonyl-phenyl)methyl]-1,1-dioxo-2,3-dihydro-1λ^6,5-benzothiazepin-4-one] | 74 | 5550 |
| > 10000 | CCc1coc(CN2C(=O)[C@@H](N)CS(=O)(=O)c3cc(F)c(-c4nnc(C(C)(C)C)o4)cc32)n1 [Example 241, (3R)-3-amino-7-(5-tert-butyl-1,3,4-oxadiazol-2-yl)-5-[(4-ethyloxazol-2-yl)methyl]-8-fluoro-1,1-dioxo-2,3-dihydro-1λ^6,5-benzothiazepin-4-one] | 73 | 2940 |
| 4800 | CC(C)(C)c1nnc(-c2cc3c(cc2F)S(=O)(=O)C[C@H](N)C(=O)N3Cc2ccc(S(C)(=O)=O)c(F)c2)o1 [Example 242, (3R)-3-amino-7-(5-tert-butyl-1,3,4-oxadiazol-2-yl)-8-fluoro-5-[(3-fluoro-4-methylsulfonyl-phenyl)methyl]-1,1-dioxo-2,3-dihydro-1λ^6,5-benzothiazepin-4-one] | 92 | 3400 |
| 918 | CC(C)(C)c1nnc(-c2cc3c(cc2F)S(=O)(=O)C[C@H](N)C(=O)N3Cc2ccc(OCC(F)(F)F)cc2)o1 [Example 243, (3R)-3-amino-7-(5-tert-butyl-1,3,4-oxadiazol-2-yl)-8-fluoro-1,1-dioxo-5-[[4-(2,2,2-trifluoroethoxy)phenyl]methyl]-2,3-dihydro-1λ^6,5-benzothiazepin-4-one] | 129 | 246 |
| 92.1 | CC(C)(C)c1nnc(-c2cc3c(cc2F)S(=O)(=O)C[C@H](N)C(=O)N3Cc2ccc(Cl)c(F)c2)o1 [Example 245, (3R)-3-amino-7-(5-tert-butyl-1,3,4-oxadiazol-2-yl)-5-[(4-chloro-3-fluoro-phenyl)methyl]-8-fluoro-1,1-dioxo-2,3-dihydro-1λ^6,5-benzothiazepin-4-one] | 127 | 102 |
| 342 | CC(C)(C)c1nnc(-c2cc3c(cc2F)S(=O)(=O)C[C@H](N)C(=O)N3Cc2ccc(F)c(F)c2)o1 [Example 246, (3R)-3-amino-7-(5-tert-butyl-1,3,4-oxadiazol-2-yl)-5-[(3,4-difluorophenyl)methyl]-8-fluoro-1,1-dioxo-2,3-dihydro-1λ^6,5-benzothiazepin-4-one] | 110 | 442 |
| 320 | CC(C)Oc1ccc(CN2C(=O)[C@@H](N)CS(=O)(=O)c3cc(F)c(-c4nnc(C(C)(C)C)o4)cc32)nc1 [Example 247, (3R)-3-amino-7-(5-tert-butyl-1,3,4-oxadiazol-2-yl)-8-fluoro-5-[(5-isopropoxy-2-pyridyl)methyl]-1,1-dioxo-2,3-dihydro-1λ^6,5-benzothiazepin-4-one] | 79 | 761 |
| > 10000 | CC(C)(C)c1nnc(-c2cc3c(cc2F)S(=O)(=O)C[C@H](N)C(=O)N3Cc2ccc(Cl)nn2)o1 [Example 251, (3R)-3-amino-7-(5-tert-butyl-1,3,4-oxadiazol-2-yl)-5-[(6-chloropyridazin-3-yl)methyl]-8-fluoro-1,1-dioxo-2,3-dihydro-1λ^6,5-benzothiazepin-4-one] | 66 | 5300 |
| 1160 | CC(C)(C)c1nnc(-c2cc3c(cc2F)S(=O)(=O)C[C@H](N)C(=O)N3Cc2cncc(Cc3ccc(Cl)cc3)c2)o1 [Example 252, (3R)-3-amino-7-(5-tert-butyl-1,3,4-oxadiazol-2-yl)-5-[[5-[(4-chlorophenyl)methyl]-3-pyridyl]methyl]-8-fluoro-1,1-dioxo-2,3-dihydro-1λ^6,5-benzothiazepin-4-one] | 72 | 4820 |

| Structure (SMILES) | EC50 (primary human T-cells [1]) [nM] | Emax (primary human T-cells [2]) [%] | EC50 (primary human T-cells [2]) [nM] |
| --- | --- | --- | --- |
| CC(C)(C)c1nnc(-c2cc3c(cc2F)S(=O)(=O)C[C@H](N)C(=O)N3Cc2ccc(OC3CCCC3)nc2)o1 [Example 248, (3R)-3-amino-7-(5-tert-butyl-1,3,4-oxadiazol-2-yl)-5-[[6-(cyclopentoxy)-3-pyridyl]methyl]-8-fluoro-1,1-dioxo-2,3-dihydro-1λ^6,5-benzothiazepin-4-one] | 140 | 157 | 440 |
